Assay results published in ChEMBL document CHEMBL6182854, “Design, synthesis and biological evaluation of WEE1 degraders via HSP90-mediated targeting chimeras for target therapy of acute myeloid leukemia” (Eur J Med Chem, 2025).
Activity calls are given as the source filed them. No cut-off for these calls is given here.

Legend:
MV4-11 [1] = assay: Antiproliferative activity against human MV4-11 cells assessed as cell viability incubated for 72 hrs by CCK-8 assay; format: functional, cell-based; details: MV4-11, 72 h
MV4-11 [2] = assay: HEMTAC activity against HSP90/WEE1 in human MV4-11 cells assessed as induction of WEE1 degradation at 10 uM incubated for 12 hrs by Western blotting analysis; format: cell-based
[3] = target: Heat shock protein HSP 90-alpha (Homo sapiens, UniProt P07900); assay: Inhibition of N-terminal HSP90alpha (unknown origin) ATPase activity incubated for 3 hrs by fluorescence polarization assay
MV4-11 [4] = assay: Induction of cell cycle arrest in human MV4-11 cells assessed as accumulation of cells at G2/M phase incubated for 72 hrs by PI staining based flow cytometry; format: functional; details: dose 30.0 µM
[5] = Toxicity in female NOD/SCID mouse xenografted with patient derived human Primary acute myeloid leukemic cell assessed as liver damage at 10 mg/kg administered via tail vein by H and E staining based optical microscopic analysis; format: organism-based; details: in vivo, iv
[6] = tested on: Primary acute myeloid leukemic cell; assay: Antitumor activity against patient derived human Primary acute myeloid leukemic cell xenografted in female NOD/SCID mouse assessed as reduction in splenomegaly at 10 mg/kg administered via tail vein and measured after 4 weeks; format: functional, organism-based
MV4-11 [7] = assay: Upregulation of WEE1 mRNA expression in human MV4-11 cells incubated for 12 hrs by qRT-PCR analysis; format: functional, cell-based; details: dose 1-10 µM
[8] = Toxicity in male BALB/C mouse assessed as myelosuppression by measuring platelet level at 10 mg/kg administered via tail vein and measured on day 3; format: organism-based; details: in vivo, iv, 72 h, time 3 day
[9] = Toxicity in female NOD/SCID mouse xenografted with patient derived human Primary acute myeloid leukemic cell assessed as lung damage at 3 mg/kg administered via tail vein by H and E staining based optical microscopic analysis; format: organism-based; details: in vivo, iv
[10] = Toxicity in female NOD/SCID mouse xenografted with patient derived human Primary acute myeloid leukemic cell assessed as spleen damage at 10 mg/kg administered via tail vein by H and E staining based optical microscopic analysis; format: organism-based; details: in vivo, iv
MV4-11 [11] = assay: Induction of cell cycle arrest in human MV4-11 cells assessed as accumulation of cells at G2/M phase at 30 nM incubated for 72 hrs by PI staining based flow cytometry; format: functional
[12] = Antiproliferative activity against patient derived human Primary acute myeloid leukemic cell assessed as inhibition of cell growth incubated for 72 hrs by CCK-8 assay; format: functional, cell-based
[13] = Antitumor activity against patient derived human Primary acute myeloid leukemic cell xenografted in female NOD/SCID mouse assessed as decrease in huCD45+ cells in bone marrow at 10 mg/kg administered via tail vein and measured after 4 weeks by flow cytometric analysis relative to control; format: functional; parameters: scale not given: the % may be the effect or the level left
MV4-11 [14] = assay: HEMTAC activity against HSP90/AKT in human MV4-11 cells assessed as induction of AKT degradation at 0.1 uM incubated for 12 hrs by Western blotting analysis; format: cell-based
[15] = target: Cyclin-dependent kinase 1 (Homo sapiens) (UniProt P06493); assay: Inhibition of CDK1 phosphorylation in human MV4-11 cells; format: cell-based
[16] = tested on: Primary acute myeloid leukemic cell; assay: Antitumor activity against patient derived human Primary acute myeloid leukemic cell xenografted in female NOD/SCID mouse assessed as decrease in huCD45+ cells in spleen at 10 mg/kg administered via tail vein and measured after 4 weeks by flow cytometric analysis; format: functional, organism-based
[17] = Toxicity in female NOD/SCID mouse xenografted with patient derived human Primary acute myeloid leukemic cell assessed as heart damage at 10 mg/kg administered via tail vein by H and E staining based optical microscopic analysis; format: organism-based; details: in vivo, iv
[18] = Toxicity in female NOD/SCID mouse xenografted with patient derived human Primary acute myeloid leukemic cell assessed as lung damage at 10 mg/kg administered via tail vein by H and E staining based optical microscopic analysis; format: organism-based; details: in vivo, iv
[19] = Cytotoxicity against human PBMC cells assessed as reduction in cell viability up to 1000 nM incubated for 72 hrs by CCK-8 assay; format: toxicity, cell-based; details: 1 µM
MV4-11 [20] = assay: HEMTAC activity at HSP90/WEE1 in human MV4-11 cells assessed as induction of WEE1 degradation at 0.1 uM incubated for 12 hrs by Western blotting analysis; format: cell-based
[21] = Toxicity in female NOD/SCID mouse xenografted with patient derived human Primary acute myeloid leukemic cell assessed as increase in body weight at 10 mg/kg administered via tail vein and measured after 4 weeks; format: organism-based; details: in vivo, iv, 672 h
[22] = tested on: Primary acute myeloid leukemic cell; assay: Antitumor activity against patient derived human Primary acute myeloid leukemic cell xenografted in female NOD/SCID mouse assessed as decrease in huCD45+ cells in bone marrow at 5 mg/kg administered via tail vein and measured after 4 weeks in presence of STA9090 by flow cytometric analysis; format: functional, organism-based
[23] = tested on: Primary acute myeloid leukemic cell; assay: Antitumor activity against patient derived human Primary acute myeloid leukemic cell xenografted in female NOD/SCID mouse assessed as decrease in huCD45+ cells in bone marrow at 5 mg/kg administered via tail vein and measured after 4 weeks by flow cytometric analysis; format: functional, organism-based
MV4-11 [24] = assay: Induction of cell cycle arrest in human MV4-11 cells assessed as accumulation of cells at G2/M phase at 100 nM incubated for 72 hrs by PI staining based flow cytometry; format: functional
[25] = tested on: Primary acute myeloid leukemic cell; assay: Antitumor activity against patient derived human Primary acute myeloid leukemic cell xenografted in female NOD/SCID mouse assessed as decrease in huCD45+ cells in bone marrow at 3 mg/kg administered via tail vein in presence of STA9090 and measured after 4 weeks by flow cytometric analysis; format: functional, organism-based
[26] = Toxicity in female NOD/SCID mouse xenografted with patient derived human Primary acute myeloid leukemic cell assessed as increase in body weight at 3 mg/kg administered via tail vein and measured after 4 weeks; format: organism-based; details: in vivo, iv, 672 h
[27] = Toxicity in male BALB/C mouse assessed as myelosuppression by measuring leukocytes level at 10 mg/kg administered via tail vein and measured on day 3; format: organism-based; details: in vivo, iv, 72 h, time 3 day
[28] = Toxicity in female NOD/SCID mouse xenografted with patient derived human Primary acute myeloid leukemic cell assessed as heart damage at 3 mg/kg administered via tail vein by H and E staining based optical microscopic analysis; format: organism-based; details: in vivo, iv
[29] = Toxicity in female NOD/SCID mouse xenografted with patient derived human Primary acute myeloid leukemic cell assessed as spleen damage at 3 mg/kg administered via tail vein by H and E staining based optical microscopic analysis; format: organism-based; details: in vivo, iv
[30] = Toxicity in female NOD/SCID mouse xenografted with patient derived human Primary acute myeloid leukemic cell assessed as kidney damage at 10 mg/kg administered via tail vein by H and E staining based optical microscopic analysis; format: organism-based; details: in vivo, iv
[31] = tested on: Primary acute myeloid leukemic cell; assay: Antitumor activity against patient derived human Primary acute myeloid leukemic cell xenografted in female NOD/SCID mouse assessed as reduction in splenomegaly at 3 mg/kg administered via tail vein and measured after 4 weeks; format: functional, organism-based
[32] = Toxicity in male BALB/C mouse assessed as myelosuppression by measuring neutrophil level at 10 mg/kg administered via tail vein and measured on day 3; format: organism-based; details: in vivo, iv, 72 h, time 3 day
[33] = tested on: Primary acute myeloid leukemic cell; assay: Antitumor activity against patient derived human Primary acute myeloid leukemic cell xenografted in female NOD/SCID mouse assessed as decrease in huCD45+ cells in spleen at 3 mg/kg administered via tail vein and measured after 4 weeks by flow cytometric analysis; format: functional, organism-based
[34] = Toxicity in female NOD/SCID mouse xenografted with patient derived human Primary acute myeloid leukemic cell assessed as liver damage at 3 mg/kg administered via tail vein by H and E staining based optical microscopic analysis; format: organism-based; details: in vivo, iv
[35] = tested on: Primary acute myeloid leukemic cell; assay: Antitumor activity against patient derived human Primary acute myeloid leukemic cell xenografted in female NOD/SCID mouse assessed as decrease in huCD45+ cells in bone marrow at 5 mg/kg administered via tail vein and measured after 4 weeks in presence of AZD1775 by flow cytometric analysis; format: functional, organism-based
[36] = tested on: Primary acute myeloid leukemic cell; assay: Antitumor activity against patient derived human Primary acute myeloid leukemic cell xenografted in female NOD/SCID mouse assessed as decrease in huCD45+ cells in bone marrow at 3 mg/kg administered via tail vein in presence of AZD1775 and measured after 4 weeks by flow cytometric analysis; format: functional, organism-based

Cyclin-dependent kinase 1 (Homo sapiens), sequence (P06493 whole entry, looked up): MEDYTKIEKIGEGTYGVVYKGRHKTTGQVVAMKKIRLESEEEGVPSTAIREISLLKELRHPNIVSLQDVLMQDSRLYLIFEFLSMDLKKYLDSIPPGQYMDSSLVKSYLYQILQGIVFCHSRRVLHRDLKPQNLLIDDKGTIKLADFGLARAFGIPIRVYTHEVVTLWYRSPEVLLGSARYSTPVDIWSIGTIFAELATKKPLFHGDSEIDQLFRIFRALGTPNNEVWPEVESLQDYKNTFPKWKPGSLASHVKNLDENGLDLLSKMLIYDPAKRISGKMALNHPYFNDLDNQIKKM

C=CCn1c(=O)c2cnc(Nc3ccc(N4CCN(CCCCCNC(=O)CN5CCN(Cc6ccc(-n7c(C(=O)NCC)nnc7-c7cc(C(C)C)c(O)cc7O)cc6)CC5)CC4)cc3)nc2n1-c1cccc(C(C)(C)O)n1
IC50 (MV4-11 [1]): 0.00966 µM
Activity (MV4-11 [2]): Active

C=CCn1c(=O)c2cnc(Nc3ccc(N4CCN(CCNC(=O)c5noc(-c6cc(C(C)C)c(O)cc6O)c5-c5ccc(CN6CCOCC6)cc5)CC4)cc3)nc2n1-c1cccc(C(C)(C)O)n1
IC50 (MV4-11 [1]): 0.0992 µM
Activity (MV4-11 [2]): Active

C=CCn1c(=O)c2cnc(Nc3ccc(N4CCN(CCNC(=O)CCC(=O)Nc5ccc6c(c5)CCN6C(=O)c5cc(C(C)C)c(O)cc5O)CC4)cc3)nc2n1-c1cccc(C(C)(C)O)n1
IC50 (MV4-11 [1]): 0.0131 µM
Activity (MV4-11 [2]): Active

C=CCn1c(=O)c2cnc(Nc3ccc(N4CCN(CCCNC(=O)c5noc(-c6cc(C(C)C)c(O)cc6O)c5-c5ccc(CN6CCOCC6)cc5)CC4)cc3)nc2n1-c1cccc(C(C)(C)O)n1
IC50 [3]: 0.0139 µM
Activity (MV4-11 [4]): Dose-dependent-effect
Activity [5]: Non-toxic
Activity [6]: Active
Activity (MV4-11 [7]): Active
IC50 (MV4-11 [1]): 0.00803 µM
Activity [8]: Non-toxic
Activity [9]: Non-toxic
Activity [10]: Non-toxic
Activity (MV4-11 [11]): Active
IC50 [12]: 0.0405 µM
Activity [13]: >70%
Activity (MV4-11 [14]): Minimal_effect
inhibition [15]: Active
Activity [16]: Active
Activity [17]: Non-toxic
Activity [18]: Non-toxic
Activity (MV4-11 [2]): Active
Activity [19]: Non-toxic
Activity (MV4-11 [20]): Active
Activity [21]: Non-toxic

C=CCn1c(=O)c2cnc(Nc3ccc(N4CCN(CCCCNC(=O)c5noc(-c6cc(C(C)C)c(O)cc6O)c5-c5ccc(CN6CCOCC6)cc5)CC4)cc3)nc2n1-c1cccc(C(C)(C)O)n1
IC50 (MV4-11 [1]): 0.045 µM
Activity (MV4-11 [2]): Active

C=CCn1c(=O)c2cnc(Nc3ccc(N4CCN(CCCNC(=O)CCC(=O)Nc5ccc6c(c5)CCN6C(=O)c5cc(C(C)C)c(O)cc5O)CC4)cc3)nc2n1-c1cccc(C(C)(C)O)n1
IC50 [3]: 0.0187 µM
IC50 (MV4-11 [1]): 0.0476 µM
Activity (MV4-11 [2]): Active

C=CCn1c(=O)c2cnc(Nc3ccc(N4CCN(CCCCNC(=O)CCC(=O)Nc5ccc6c(c5)CCN6C(=O)c5cc(C(C)C)c(O)cc5O)CC4)cc3)nc2n1-c1cccc(C(C)(C)O)n1
IC50 (MV4-11 [1]): 0.153 µM
Activity (MV4-11 [2]): Active

C=CCn1c(=O)c2cnc(Nc3ccc(N4CCN(CCCCCNC(=O)c5noc(-c6cc(C(C)C)c(O)cc6O)c5-c5ccc(CN6CCOCC6)cc5)CC4)cc3)nc2n1-c1cccc(C(C)(C)O)n1
IC50 (MV4-11 [1]): 0.0242 µM
Activity (MV4-11 [2]): Active

C=CCn1c(=O)c2cnc(Nc3ccc(N4CCN(CCNC(=O)CN5CCN(Cc6ccc(-n7c(C(=O)NCC)nnc7-c7cc(C(C)C)c(O)cc7O)cc6)CC5)CC4)cc3)nc2n1-c1cccc(C(C)(C)O)n1
IC50 (MV4-11 [1]): 0.0131 µM
Activity (MV4-11 [2]): Active

C=CCn1c(=O)c2cnc(Nc3ccc(N4CCN(C)CC4)cc3)nc2n1-c1cccc(C(C)(C)O)n1 [ADAVOSERTIB]
Activity (MV4-11 [7]): inactive
Activity [22]: inactive
IC50 (MV4-11 [1]): 0.0675 µM
Activity [23]: inactive
Activity (MV4-11 [24]): Active
Activity (MV4-11 [2]): inactive
Activity [25]: inactive

C=CCn1c(=O)c2cnc(Nc3ccc(N4CCN(CCCCCNC(=O)CCC(=O)Nc5ccc6c(c5)CCN6C(=O)c5cc(C(C)C)c(O)cc5O)CC4)cc3)nc2n1-c1cccc(C(C)(C)O)n1
IC50 (MV4-11 [1]): 0.0384 µM
Activity (MV4-11 [2]): Active

CCNC(=O)c1noc(-c2cc(C(C)C)c(O)cc2O)c1-c1ccc(CN2CCOCC2)cc1 [LUMINESPIB]
Activity (MV4-11 [4]): Active
IC50 (MV4-11 [1]): 0.00198 µM

C=CCn1c(=O)c2cnc(Nc3ccc(N4CCN(CCCCNC(=O)CN5CCN(Cc6ccc(-n7c(C(=O)NCC)nnc7-c7cc(C(C)C)c(O)cc7O)cc6)CC5)CC4)cc3)nc2n1-c1cccc(C(C)(C)O)n1
Activity [26]: Non-toxic
IC50 [3]: 0.0168 µM
Activity (MV4-11 [4]): Dose-dependent-effect
Activity (MV4-11 [7]): Active
Activity [8]: Non-toxic
Activity [9]: Non-toxic
Activity [27]: Non-toxic
Activity [28]: Non-toxic
Activity (MV4-11 [11]): Active
Activity [29]: Non-toxic
Activity [30]: Non-toxic
Activity (MV4-11 [14]): Minimal_effect
inhibition [15]: Active
Activity [31]: Active
Activity [32]: Non-toxic
Activity [33]: Active
Activity (MV4-11 [2]): Active
Activity [19]: Non-toxic
Activity (MV4-11 [20]): Active
Activity [34]: Non-toxic

CC(C)c1cc(-c2n[nH]c(=O)n2-c2ccc3c(ccn3C)c2)c(O)cc1O [GANETESPIB]
Activity (MV4-11 [4]): Active
IC50 (MV4-11 [1]): 0.00153 µM
Activity [23]: inactive
Activity [35]: inactive
Activity [36]: inactive

CC(C)c1cc(C(=O)N2Cc3ccc(CN4CCN(C)CC4)cc3C2)c(O)cc1O [ONALESPIB]
IC50 [3]: 0.00989 µM
IC50 (MV4-11 [1]): 0.00613 µM
